Source: US20260355331A1, “CEREBLON DEGRADER CONJUGATES, AND USES THEREOF” (GENENTECH, INC., priority 2022, published 2026)

How the values were obtained:
[1] = stability of cDLI under conjugation conditions; type: physicochemical; details: pH 8.5, 3 and 10 equivalents, 3 hours and overnight; LC/MS
[2] = release of lenalidomide and hydrolysis of sulfonyl-thio cDLI; type: in vitro ADME; details: with and without methyl adjacent to the glutarimide nitrogen
proteases = assay: protease cleavage of cDAC made with cDLI; type: in vitro ADME; details: presence of proteases; cDAC of cDLI-6 variants
[3] = reductive cleavage / release of lenalidomide in a model study; type: in vitro ADME; details: reduction
Description: The nitro group of para-nitrobenzyloxymethyl lenalidomide cDLI-7 was reduced to amine in a model study. […] The disulfide group of para-nitropyridyl disulfidemethyl lenalidomide cDLI-8 was reduced in a model study.

KPL-4 cells (HER2+) = assay: cell proliferation assay (CellTiter-Glo), KPL-4; type: cell-based; details: KPL4, 120 h; cereblon degrader compound, 5 days; read-out: IC50 anti-proliferative
Description: (§1) The CellTiter-Glo® Luminescent Cell Viability Assay is a commercially available (Promega Corp., Madison, WI), homogeneous assay method based on the recombinant expression of Coleoptera luciferase (U.S. Pat. Nos. 5,583,024; 5,674,713; 5,700,670). This cell proliferation assay determines the number of viable cells in culture based on quantitation of the ATP present, an indicator of metabolically active cells (Crouch et al (1993) J. Immunol. Meth. 160:81-88; U.S. Pat. No. 6,602,677). The CellTiter-Glo® Assay was conducted in 96 well format, making it amenable to automated high-throughput screening (HTS) (Cree et al (1995) AntiCancer Drugs 6:398-404). […] Data can be recorded by luminometer or CCD camera imaging device. The luminescence output is expressed as relative light units (RLU). […]
(§2) Efficacy of the cDAC was measured by a cell proliferation assay employing the following protocol ([…] GLO™ Luminescent Cell Viability Assay, Promega Corp. Technical Bulletin TB288; Mendoza et al. (2002) Cancer Res. 62:5485-5488): • 1. […] The plate was incubated at room temperature for 5 minutes to stabilize the luminescence signal. • 8. Luminescence was recorded and reported in graphs as % activity where RLU (relative luminescence units) was normalized to controls (no antibody control minus no cell control). […]

SK-BR-3 cells (HER2+) = assay: cell proliferation assay (CellTiter-Glo), SK-BR-3; type: cell-based; details: Homo sapiens, SK-BR-3, 120 h; cereblon degrader compound, 5 days; read-out: IC50 anti-proliferative
Description: as §1, §2

[4] = cDLI stability in whole blood; type: in vitro ADME

CC(OC(=O)OCN1C(=O)CCC(N2Cc3ccccc3C2=O)C1=O)C(C)SS(C)(=O)=O (stereo not drawn) [cDLI-9, S-(3-((((2,6-dioxo-3-(1-oxoisoindolin-2-yl)piperidin-1-yl)methoxy)carbonyl)oxy)butan-2-yl)methanesulfonothioate]
stability under conjugation conditions (in words) [1]: Hydrolysis of the carbonate bond was observed | release of lenalidomide (in words) [2]: cleaved to release detectable lenalidomide | stability (in words) [2]: not stable, generating hydrolysis products

6-(2,5-dioxo-2,5-dihydro-1H-pyrrol-1-yl)-N-((2S)-1-(((2S)-1-((4-((2,6-dioxo-3-(1-oxoisoindolin-2-yl)piperidin-1-yl)methyl)phenyl)amino)-1-oxopropan-2-yl)amino)-3-methyl-1-oxobutan-2-yl)hexanamide [cDLI-6]
cleavage by proteases (in words) (proteases): failed to cleave in the presence of proteases

O=C1CCC(N2Cc3ccccc3C2=O)C(=O)N1CSSc1ccc([N+](=O)[O-])cn1 (stereo not drawn) [cDLI-8, 1-(((5-nitropyridin-2-yl)disulfaneyl)methyl)-3-(1-oxoisoindolin-2-yl)piperidine-2,6-dione]
cleavage to release lenalidomide (in words) [3]: No cleavage of the disulfide group was observed

Cn1cc2c3c(c[nH]c3c1=O)CN(c1ncc(F)cc1F)c1cc(C(=O)NCCCCCCCNc3cccc4c3CN(C3CCC(=O)NC3=O)C4=O)c(CS(C)(=O)=O)cc1-2 (stereo not drawn) [cD-5, 4-(3,5-difluoropyridin-2-yl)-N-(7-((2-(2,6-dioxopiperidin-3-yl)-1-oxoisoindolin-4-yl)amino)heptyl)-10-methyl-7-((methylsulfonyl)methyl)-11-oxo-3,4,10,11-tetrahydro-1H-1,4,10-triazadibenzo[cd,f]azulene-6-carboxamide]
IC50 (KPL-4 cells (HER2+)): 0.65 nM | IC50 (SK-BR-3 cells (HER2+)): 0.41 nM

O=C1CCC(N2Cc3ccccc3C2=O)C(=O)N1COCc1ccc([N+](=O)[O-])cc1 (stereo not drawn) [cDLI-7, 1-(((4-nitrobenzyl)oxy)methyl)-3-(1-oxoisoindolin-2-yl)piperidine-2,6-dione]
cleavage to release lenalidomide (in words) [3]: No cleavage of the para-aminobenzyloxy group was observed

CC(C)(C)OC(=O)Nc1cccc2c1CN(C1CCC(=O)N(C(=O)OCC(C)(C)SS(C)(=O)=O)C1=O)C2=O (stereo not drawn) [cDLI-1, 2-methyl-2-((methylsulfonyl)thio)propyl 3-(4-((tert-butoxycarbonyl)amino)-1-oxoisoindolin-2-yl)-2,6-dioxopiperidine-1-carboxylate]
stability under conjugation conditions (in words) [1]: too unstable under these conditions for conjugation

CC(CN1C(=O)C=CC1=O)SN1C(=O)CCC(N2Cc3ccccc3C2=O)C1=O (stereo not drawn) [cDLI-5, 1-((1-(2,5-dioxo-2,5-dihydro-1H-pyrrol-1-yl)propan-2-yl)thio)-3-(1-oxoisoindolin-2-yl)piperidine-2,6-dione]
stability in whole blood (in words) [4]: not stable in whole blood

CC(C)(CSS(C)(=O)=O)OC(=O)OCN1C(=O)CCC(N2Cc3ccccc3C2=O)C1=O (stereo not drawn) [cDLI-10, S-(2-((((2,6-dioxo-3-(1-oxoisoindolin-2-yl)piperidin-1-yl)methoxy)carbonyl)oxy)-2-methylpropyl) methanesulfonothioate]
stability under conjugation conditions (in words) [1]: Hydrolysis of the carbonate bond was observed

O=C1C=CC(=O)N1CCSN1C(=O)CCC(N2Cc3ccccc3C2=O)C1=O (stereo not drawn) [cDLI-4, 1-((2-(2,5-dioxo-2,5-dihydro-1H-pyrrol-1-yl)ethyl)thio)-3-(1-oxoisoindolin-2-yl)piperidine-2,6-dione]
stability in whole blood (in words) [4]: not stable in whole blood
